Laboratory results as given in patent US11236094B2, “Substituted pyrrolo[2,1-f][1,2,4]triazines as FGFR inhibitors” (CSPC ZHONGQI PHARMACEUTICAL TECHNOLOGY (SHIJIAZHUANG) CO., …, priority 2017, dated 2022).
Like-named read-outs stand apart in the source and are kept apart here.

Columns and labels:
human FGFR4 = human FGFR4 (Homo sapiens, UniProt P22455); assay: 33P isotope-labeled kinase activity test, wild-type FGFR4; settings: 33P-ATP 100 μM, 120 minutes
Excerpt: (§1) Assay 1: Evaluation of Wild-Type Kinase Inhibitory Activity In Vitro

human FGFR1 = human FGFR1 (Homo sapiens, UniProt P11362); assay: 33P isotope-labeled kinase activity test, wild-type FGFR1; settings: 33P-ATP 5 μM, 120 minutes
human FGFR1, sequence (P11362 22-822): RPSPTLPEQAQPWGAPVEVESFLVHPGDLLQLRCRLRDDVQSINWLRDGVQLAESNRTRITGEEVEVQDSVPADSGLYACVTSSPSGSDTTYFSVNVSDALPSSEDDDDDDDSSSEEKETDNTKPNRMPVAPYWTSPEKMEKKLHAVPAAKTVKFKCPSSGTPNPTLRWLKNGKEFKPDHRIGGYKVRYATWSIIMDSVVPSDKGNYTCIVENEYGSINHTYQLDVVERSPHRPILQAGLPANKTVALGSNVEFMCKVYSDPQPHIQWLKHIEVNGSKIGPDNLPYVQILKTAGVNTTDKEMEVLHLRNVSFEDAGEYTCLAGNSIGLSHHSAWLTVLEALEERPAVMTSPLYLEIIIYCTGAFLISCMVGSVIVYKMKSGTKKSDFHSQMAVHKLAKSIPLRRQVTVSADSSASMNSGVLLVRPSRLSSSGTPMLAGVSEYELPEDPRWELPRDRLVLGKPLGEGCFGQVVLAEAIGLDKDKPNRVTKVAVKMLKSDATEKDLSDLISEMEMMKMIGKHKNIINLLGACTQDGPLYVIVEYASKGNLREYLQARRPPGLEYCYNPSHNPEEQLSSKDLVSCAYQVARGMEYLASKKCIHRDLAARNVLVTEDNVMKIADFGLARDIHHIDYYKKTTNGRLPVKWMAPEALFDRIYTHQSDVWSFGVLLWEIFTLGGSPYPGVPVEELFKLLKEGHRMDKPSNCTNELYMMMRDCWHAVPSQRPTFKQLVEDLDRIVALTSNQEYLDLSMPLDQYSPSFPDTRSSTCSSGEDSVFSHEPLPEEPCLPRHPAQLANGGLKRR
Excerpt: as §1

[1] = Pharmacokinetics in mice in vivo; settings: female, mouse, plasma, Balb/c mice; for AUC: read-out: Area under the curve, AUC; for clearance: read-out: Clearance rate; for half-life: read-out: Half-life T1/2 (converted); for bioavailability: read-out: Bioavailability F
Experimental: Assay 3: Evaluation of Compounds' Pharmacokinetics
Experiment purpose: To test the pharmacokinetics of the compound in mice in vivo.
The pharmacokinetics profile in rodents after the intravenous injection and the oral administration of the compound was tested using a standard protocol. In experiments, the candidate compound was prepared as a clear solution, which was administered to the mice as a single intravenous injection and as an oral administration. The medium for the intravenous injection was 10% DMSO/10% solutol/80% water, and the medium for the oral administration was 0.5% sodium carboxymethylcellulose+0.2% Tween. The whole blood samples within 24 hours were collected. All blood samples were added to the well-labeled plastic centrifuge tubes, to which 0.5M K2-EDTA anticoagulant was added in advance. After the collection of blood samples, the blood samples were centrifuged at 4° C. at 3000 g for 10 minutes. The supernatant plasma was collected, promptly placed in the dry ice, and kept at a temperature of −20° C. or lower. The LC-MS/MS analysis method was used to quantitatively analyze the blood concentration, and the pharmacokinetics parameters, such as peak concentration, peak time, clearance rate, half-life, area under the curve and bioavailability were calculated.

human FGFR4, sequence (P22455 22-802): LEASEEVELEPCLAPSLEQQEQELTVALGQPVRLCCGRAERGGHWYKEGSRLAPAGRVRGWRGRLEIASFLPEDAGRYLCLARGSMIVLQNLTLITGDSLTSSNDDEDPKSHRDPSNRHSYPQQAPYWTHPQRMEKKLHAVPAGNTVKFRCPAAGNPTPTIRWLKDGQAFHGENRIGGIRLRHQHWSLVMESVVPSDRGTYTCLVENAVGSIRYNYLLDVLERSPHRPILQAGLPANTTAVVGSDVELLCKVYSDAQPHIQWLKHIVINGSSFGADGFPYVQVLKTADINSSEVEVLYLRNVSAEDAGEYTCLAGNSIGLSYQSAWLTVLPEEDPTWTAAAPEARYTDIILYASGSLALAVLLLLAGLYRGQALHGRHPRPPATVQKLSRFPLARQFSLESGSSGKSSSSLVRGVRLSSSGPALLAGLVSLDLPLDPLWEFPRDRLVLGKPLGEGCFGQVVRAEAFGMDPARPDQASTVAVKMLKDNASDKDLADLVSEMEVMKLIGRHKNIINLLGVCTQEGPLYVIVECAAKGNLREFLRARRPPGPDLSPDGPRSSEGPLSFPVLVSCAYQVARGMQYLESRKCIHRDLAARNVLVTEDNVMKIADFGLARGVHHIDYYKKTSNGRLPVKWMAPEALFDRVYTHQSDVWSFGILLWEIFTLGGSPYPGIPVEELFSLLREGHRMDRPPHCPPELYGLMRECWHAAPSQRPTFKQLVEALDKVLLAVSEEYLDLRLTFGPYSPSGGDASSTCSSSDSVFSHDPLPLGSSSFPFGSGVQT

SMILES | IC50 (human FGFR4) [nM] | IC50 (human FGFR1; IC50 FGFR1, wild-type kinase) [nM] | other results
C=CC(=O)N1CCC(c2cc(-c3sc4c(OC)cc(C)cc4c3C)c3c(N)ncnn23)C1 (single isomer, unassigned) [Example 7] | 8.5 | 0.7 | –
C=CC(=O)N1CCC(c2cc(-c3sc4c(OC)cc(C)cc4c3C)c3c(N)ncnn23)C1 (single isomer, unassigned) [Example 8] | 0.7 | 0.1 | –
COc1cc(C)cc2cc(-c3cc(C4CCN(C(=O)/C=C/CN(C)C)C4)n4ncnc(N)c34)sc12 (single isomer, unassigned) [Example 12] | 2.6 | 0.2 | –
COc1cc(C)cc2cc(-c3cc(C4CCN(C(=O)/C=C/CN(C)C)C4)n4ncnc(N)c34)sc12 (single isomer, unassigned) [Example 13] | 8.7 | 0.6 | –
COc1cc(C)cc2cc(-c3cc(C4CCN(C(=O)CC#N)C4)n4ncnc(N)c34)sc12 (single isomer, unassigned) [Example 15] | 6.2 | 1.5 | AUC ([1]; intravenous injection (3 npk)): 2.03 µM·h; clearance ([1]; intravenous injection (3 npk)): 52 mL/min/kg; half-life ([1]; intravenous injection (3 npk)): 48 min; AUC ([1]; oral administration (10 npk)): 4.8 µM·h; bioavailability ([1]; oral administration (10 npk)): 70%
COc1cc(C)cc2cc(-c3cc(C4CCN(C(=O)CC#N)C4)n4ncnc(N)c34)sc12 (single isomer, unassigned) [Example 16] | 5.3 | 0.8 | –
C=CC(=O)N1CCC(c2c(COC)c(-c3cc4cc(C)cc(OC)c4s3)c3c(N)ncnn23)C1 (single isomer, unassigned) [Example 18] | 0.2 | 0.1 | –
C=CC(=O)N1CCC(c2c(COC)c(-c3cc4cc(C)cc(OC)c4s3)c3c(N)ncnn23)C1 (single isomer, unassigned) [Example 19] | 0.1 | – | IC50 (human FGFR1; read-out: IC50 FGFR1, wild-type kinase): 0.1 nM
C=CC(=O)N1CCC(c2cc(-c3cc4cc(C)cc(OC)c4s3)c3c(N)ncnn23)C1 (centres unmarked) [Example 1] | 0.9 | 0.4 | –
C=CC(=O)N1CC[C@@H](c2cc(-c3cc4cc(Cl)cc(OC)c4s3)c3c(N)ncnn23)C1 [Example 4] | 4.1 | 0.6 | –
C=CC(=O)N1CC[C@H](c2cc(-c3cc4cc(Cl)cc(OC)c4s3)c3c(N)ncnn23)C1 [Example 5] | 0.7 | 0.3 | –
C=CC(=O)N1CCCC(c2cc(-c3cc4cc(C)cc(OC)c4s3)c3c(N)ncnn23)C1 (centres unmarked) [Example 6] | 5.4 | 1.7 | –
C=CC(=O)N1CC[C@H](c2cc(-c3sc4c(OC)cc(Cl)cc4c3C)c3c(N)ncnn23)C1 [Example 9] | 3.3 | 0.7 | –
CC#CC(=O)N1CC[C@@H](c2cc(-c3cc4cc(C)cc(OC)c4s3)c3c(N)ncnn23)C1 [Example 10] | 1.5 | 0.2 | –
CC#CC(=O)N1CC[C@H](c2cc(-c3cc4cc(C)cc(OC)c4s3)c3c(N)ncnn23)C1 [Example 11] | 0.1 | 0.1 | –
C=CC(=O)N1CCC(O)(c2cc(-c3cc4cc(C)cc(OC)c4s3)c3c(N)ncnn23)C1 (centres unmarked) [Example 14] | 6.6 | 0.8 | –
C=CC(=O)N1CC[C@H](c2cc(-c3nc4cc(OC)cc(OC)c4s3)c3c(N)ncnn23)C1 [Example 17] | > 10000 | > 10000 | –

SMILES | IC50 (human FGFR4) [nM] | IC50 (human FGFR1; IC50 FGFR1, wild-type kinase) [nM] | other results
CC#CC(=O)N1CCC(c2c(COC)c(-c3cc4cc(C)cc(OC)c4s3)c3c(N)ncnn23)C1 (centres unmarked) [Example 20] | 0.8 | 0.2 | –
CCC(=O)N1CC[C@H](c2cc(-c3cc4c(F)c(OC)cc(OC)c4s3)c3c(N)ncnn23)C1 [Example 21] | 138 | 6.6 | –
C=CC(=O)N1CC[C@@H](c2cc(-c3cc4c(F)c(OC)cc(OC)c4s3)c3c(N)ncnn23)C1 [Example 22] | 9.9 | 1.5 | –
C=CC(=O)N1CC[C@H](c2cc(-c3cc4c(F)c(OC)cc(OC)c4s3)c3c(N)ncnn23)C1 [Example 23] | 0.2 | 0.2 | –
CCC(=O)N1CC[C@@H](c2cc(-c3cc4c(F)c(OC)cc(OC)c4s3)c3c(N)ncnn23)C1 [Example 24] | 40 | 2.2 | –
C=CC(=O)N1CC[C@H](c2cc(-c3cc4cccc(OC)c4o3)c3c(N)ncnn23)C1 [Example 25] | 477 | 250 | –
CCC(=O)N1CC[C@@H](c2cc(-c3cc4cc(C)cc(OC)c4s3)c3c(N)ncnn23)C1 [Example 26] | 4.2 | 1.2 | –
CCC(=O)N1CC[C@H](c2cc(-c3cc4cc(C)cc(OC)c4s3)c3c(N)ncnn23)C1 [Example 27] | 67 | 4.7 | –
CCC(=O)N1CC[C@H](c2cc(-c3nc4cc(OC)cc(OC)c4s3)c3c(N)ncnn23)C1 [Example 28] | > 10000 | > 10000 | –
COc1cc(OC)c2sc(-c3cc([C@@H]4CCN(C(=O)/C=C/CN(C)C)C4)n4ncnc(N)c34)cc2c1F [Example 29] | 9.2 | 0.5 | –
COc1cc(OC)c2sc(-c3cc([C@H]4CCN(C(=O)/C=C/CN(C)C)C4)n4ncnc(N)c34)cc2c1F [Example 30] | 20 | 1.6 | –
COc1cc(C)cc2cc(-c3cc([C@@H]4CCN(C(=O)/C=C/CN5CCOCC5)C4)n4ncnc(N)c34)sc12 [Example 31] | 9.6 | 1.1 | –
COc1cc(C)cc2cc(-c3cc([C@H]4CCN(C(=O)/C=C/CN5CCOCC5)C4)n4ncnc(N)c34)sc12 [Example 32] | 80 | 4.7 | –
C=CC(=O)N1CC[C@H](c2cc(-c3cc4cccc(OC)c4s3)c3c(N)ncnn23)C1 [Example 33] | 0.9 | 0.5 | –
C=CC(=O)N1CC[C@@H](c2cc(-c3nc4cc(OC)cc(OC)c4s3)c3c(N)ncnn23)C1 [Example 34] | 462 | 126 | –
C=CC(=O)N1CC[C@H](n2nc(C#Cc3cc(OC)cc(OC)c3)c3c(N)ncnc32)C1 [Reference Example 1, reference compound] | – | – | AUC ([1]; intravenous injection (3 npk)): 5.29 µM·h; clearance ([1]; intravenous injection (3 npk)): 22 mL/min/kg; half-life ([1]; intravenous injection (3 npk)): 42 min; AUC ([1]; oral administration (10 npk)): 11.9 µM·h; bioavailability ([1]; oral administration (10 npk)): 69%
